{
  "source": "patent US9145389B2",
  "about": "“Benzimidazole compound crystal” (Takeda Pharmaceutical Company Limited, priority 1999, dated 2015)",
  "key": {"[1]": {"test_system": "Gastric Mucosal Injury Due to Stress of Water Immersion Restraint in Rat", "assay": "Suppressive action on gastric mucosal injury due to stress of water immersion restraint in rat", "type": "in vivo", "settings": "male SD rats, 3 mg/kg orally 30 minutes before stressing", "procedure": "Suppressive Action on Gastric Mucosal Injury Due to Stress of Water Immersion Restraint in Rat\nMale SD rats (7 weeks of age, weighing 230 to 250 g) were fasted for 24 hours, after which they were stressed by being housed in restraint cages and immersed to below the xiphoid process in a standing position in a 23° C. constant-temperature water chamber. After 5 hours, the rats were removed from the cages and sacrificed using gaseous carbon dioxide, and their stomachs excised. After the lower portion of the esophagus was clipped, a 1% formalin solution (10 ml) was injected into the stomach via the duodenum, which was then occluded, and the stomach was immersed in the same solution. After 10 minutes, an incision was made along the greater curvature, and the length (mm) of each mucosal injury was measured under a stereomicroscope. The overall sum of the injury lengths in each stomach was taken as the gastric mucosal injury index.\nThe crystals of (R)-2-[[[3-methyl-4-(2,2,2-trifluoroethoxy)-2-pyridinyl]methyl]sulfinyl]-1H-benzimidazole (R(+)-lansoprazole) as obtained in Example 2 were suspended in 0.5% methyl cellulose (pH 9.5) containing 0.05 M NaHCO3 and orally administered at 30 minutes before stressing (dosing volume 2 ml/kg). Each treatment group comprised 9 animals. The control group (solvent administration group) and the drug administration group were compared by Steel's test."}, "[2]": {"assay": "Stability during storage at 60° C. (stopper removed), content by HPLC", "type": "physicochemical", "settings": "for Description: appearance after storage at 60° C. (exposed)", "procedure": "The crystals of R(+)-lansoprazole as obtained in Example 2 (about 5 mg) and amorphous R(+)-lansoprazole as obtained in Reference Example 1 (about 5 mg) were each taken in a colorless glass bottle, and their stability during storage at 60° C. (stopper removed) was examined. A 25 ml solution (concentration: about 0.2 mg/ml) of the sample after completion of storage in the mobile phase, along with a standard solution prepared using the initial lot, was analyzed under the HPLC conditions shown below, and the R(+)-lansoprazole content (residual percentage) was calculated from the peak area obtained."}},
  "data": [
    {"smiles": "Cc1c(OCC(F)(F)F)ccnc1C[S@@+]([O-])c1nc2ccccc2[nH]1", "note": "[Example 2, (R)-2-[[[3-methyl-4-(2,2,2-trifluoroethoxy)-2-pyridinyl]methyl]sulfinyl]-1H-benzimidazole]", "values": [
      {"measurement": "Gastric mucosal injury index", "setting": "[1]; 5 hours water immersion restraint, mean ± standard error, 9 animals", "value": "0.2 ± 0.2", "unit": "mm"},
      {"measurement": "Suppression rate", "setting": "[1]; versus control group", "value": 98.0, "unit": "%"},
      {"measurement": "Description", "setting": "[2]; 1 week, listed as Crystal", "value": "Light-brown"},
      {"measurement": "Description", "setting": "[2]; 2 weeks, listed as Crystal", "value": "Brown"},
      {"measurement": "Description", "setting": "[2]; 4 weeks", "value": "Brown"},
      {"measurement": "Content (Residual percentage)", "setting": "[2]; storage at 60° C. (exposed), 1 week, listed as Crystal", "value": 97.0, "unit": "%"},
      {"measurement": "Content (Residual percentage)", "setting": "[2]; storage at 60° C. (exposed), 2 weeks, listed as Crystal", "value": 93.8, "unit": "%"},
      {"measurement": "Content (Residual percentage)", "setting": "[2]; storage at 60° C. (exposed), 4 weeks", "value": 91.7, "unit": "%"},
      {"measurement": "Content retained", "setting": "[2]; storage at 60° C. (exposed), for up to 4 weeks", "value": "exceeding 90%"}
    ]},
    {"smiles": "Cc1c(OCC(F)(F)F)ccnc1C[S@@+]([O-])c1nc2ccccc2[nH]1", "note": "[Reference Example 1, (R)-2-[[[3-methyl-4-(2,2,2-trifluoroethoxy)-2-pyridinyl]methyl]sulfinyl]-1H-benzimidazole, reference compound]", "values": [
      {"measurement": "Description", "setting": "[2]; 1 week, listed as Amorphous", "value": "Brown"},
      {"measurement": "Description", "setting": "[2]; 2 weeks, listed as Amorphous", "value": "Blackish brown"},
      {"measurement": "Content (Residual percentage)", "setting": "[2]; storage at 60° C. (exposed), 1 week", "value": 70.8, "unit": "%"},
      {"measurement": "Content (Residual percentage)", "setting": "[2]; storage at 60° C. (exposed), 1 week, listed as Amorphous", "value": 70.8, "unit": "%"},
      {"measurement": "Content (Residual percentage)", "setting": "[2]; storage at 60° C. (exposed), 2 weeks", "value": 57.5, "unit": "%"},
      {"measurement": "Content (Residual percentage)", "setting": "[2]; storage at 60° C. (exposed), 2 weeks, listed as Amorphous", "value": 57.5, "unit": "%"}
    ]}
  ]
}
